Results reported in ChEMBL document CHEMBL6074680, “Structure-Based Discovery of a Series of Covalent, Orally Bioavailable, and Selective BFL1 Inhibitors” (J Med Chem, 2024).
Activity calls are given as the source filed them. No cut-off for these calls is given here.

Assays:
SU-DHL-1 [1] = experiment: Induction of apoptosis in human SU-DHL-1 cells assessed as caspase activation in presence of AZD5991 incubated for 6 hrs by caspaseGlo 3/7 reagent based assay; type: functional, cell-based; conditions: SU-DHL-1, 6 h
KARPAS-422 [2] = experiment: Antiproliferative activity against human KARPAS-422 cells assessed as cell survival at 10 uM incubated for 24 hrs by celltiter-glo assay; type: functional, cell-based
Mus musculus [3] = experiment: Effect on cleaved caspase 3 level in po dosed SCID mouse measured for 6 hrs by MSD assay; type: functional, organism-based; conditions: dose 100-300 mg/kg
SU-DHL-1 [4] = experiment: Antiproliferative activity against human SU-DHL-1 cells assessed as cell survival upto 100 uM incubated for 24 hrs by celltiter-glo assay; type: functional, cell-based
Mus musculus [5] = experiment: Effect on BFL1 level in po dosed SCID mouse measured for 6 hrs by MSD assay; type: functional, organism-based; conditions: dose 100-300 mg/kg
KARPAS-422 [6] = experiment: Antiproliferative activity against BFL1 null human KARPAS-422 cells assessed as cell viability incubated for 24 hrs by celltiter-glo assay; type: functional, cell-based
SU-DHL-1 [7] = experiment: Antiproliferative activity against human SU-DHL-1 cells assessed as cell viability incubated for 24 hrs by celltiter-glo assay; type: functional, cell-based; conditions: SU-DHL-1, 24 h
OCI-Ly10 = experiment: Induction of apoptosis in human OCI-Ly10 cells assessed as caspase activation incubated for 6 hrs by caspaseGlo 3/7 reagent based assay; type: functional, cell-based
[8] = target: Induced myeloid leukemia cell differentiation protein Mcl-1 (Homo sapiens, UniProt Q07820); experiment: Inhibition of MCL1 (unknown origin) by FRET assay
Induced myeloid leukemia cell differentiation protein Mcl-1, sequence (Q07820 whole entry): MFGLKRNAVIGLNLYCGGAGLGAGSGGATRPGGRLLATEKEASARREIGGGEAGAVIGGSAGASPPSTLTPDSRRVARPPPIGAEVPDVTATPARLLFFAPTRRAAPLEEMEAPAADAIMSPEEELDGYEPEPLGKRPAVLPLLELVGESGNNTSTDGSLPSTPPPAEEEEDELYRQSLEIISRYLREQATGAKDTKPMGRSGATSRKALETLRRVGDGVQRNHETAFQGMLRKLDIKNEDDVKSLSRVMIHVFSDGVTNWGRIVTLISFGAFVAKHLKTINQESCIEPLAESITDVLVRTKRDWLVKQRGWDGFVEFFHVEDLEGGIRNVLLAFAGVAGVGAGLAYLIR

Cannabinoid receptor 1 = Cannabinoid receptor 1 (Homo sapiens, UniProt P21554); experiment: Inhibition of human CB1 receptor
Cannabinoid receptor 1, sequence (P21554 whole entry): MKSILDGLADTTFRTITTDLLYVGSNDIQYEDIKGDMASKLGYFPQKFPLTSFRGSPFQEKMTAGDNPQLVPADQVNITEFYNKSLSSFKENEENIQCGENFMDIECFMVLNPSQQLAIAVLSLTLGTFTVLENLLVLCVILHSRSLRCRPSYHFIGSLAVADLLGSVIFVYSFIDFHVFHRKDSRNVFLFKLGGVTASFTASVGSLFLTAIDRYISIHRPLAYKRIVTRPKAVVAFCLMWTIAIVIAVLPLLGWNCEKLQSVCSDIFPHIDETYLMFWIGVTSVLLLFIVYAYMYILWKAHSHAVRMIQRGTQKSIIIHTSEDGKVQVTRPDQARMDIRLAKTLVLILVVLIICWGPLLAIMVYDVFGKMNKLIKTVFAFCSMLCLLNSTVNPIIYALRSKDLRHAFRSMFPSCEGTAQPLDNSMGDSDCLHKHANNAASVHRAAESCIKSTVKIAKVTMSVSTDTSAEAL

EC50 (SU-DHL-1 [1]): 350 nM | Activity (Mus musculus [3]): Dose-dependent-effect | EC50 (SU-DHL-1 [7]): 250 nM | IC50 [8]: > 100000 nM | IC50 (Cannabinoid receptor 1): > 100000 nM
Compound: C=CC(=O)N(c1ccc(O[C@@H]2CC[C@@H](N)C2)c(F)c1)[C@@H](C)c1ccc(Cl)cc1
Activity (KARPAS-422 [2]): inactive | Activity (SU-DHL-1 [4]): Active | Activity (Mus musculus [5]): Dose-dependent-effect | Activity (KARPAS-422 [6]): Active | Activity (OCI-Ly10): Active
